Experiments:
MCF7 breast cancer = assay: NCI in vitro cytotoxicity test, 3-cell-line panel: MCF7; assay type: cell-based; conditions: 2 μg/mL, 48 hours incubation; less than 32% = active
Description: (§1) In vitro cytotoxicity tests were conducted at the NCI using an in vitro 3-cell-line panel consisting of MCF7 breast cancer, NCI-H460 lung cancer, and SF-268 CNS cancer. Each cell line was inoculated and incubated in microtiter plates. After 24 hours test samples were added to a final assay concentration of 2 μg/mL and the culture was incubated for 48 hours. Results for each test sample were reported as the percentage of growth of the treated cells when compared to untreated controls. Compounds which reduced the growth of any one of the cell lines […] against standard were considered to be active.

NCI-H460 lung cancer = assay: NCI in vitro cytotoxicity test, 3-cell-line panel: NCI-H460; assay type: cell-based; conditions: 2 μg/mL, 48 hours incubation; less than 32% = active
Description: as §1

SF-268 CNS cancer = assay: NCI in vitro cytotoxicity test, 3-cell-line panel: SF-268; assay type: cell-based; conditions: 2 μg/mL, 48 hours incubation; less than 32% = active
Description: as §1

[1] = tested on: MCF7 breast cancer, NCI-H460 lung cancer, and SF-268 CNS cancer; assay: NCI in vitro 3-cell-line anticancer panel (overall statement); assay type: cell-based; conditions: NCI 3-cell-line panel
Description: as §1

B16 melanoma = conditions: previously reported for compounds from stem bark of Taxus baccata; cited from earlier work

| SMILES | MCF-7 Breast cancer, percentage of growth (One Dose Primary Anticancer Assay) (MCF7 breast cancer) [%] | H-460 Lung cancer, percentage of growth (One Dose Primary Anticancer Assay) (NCI-H460 lung cancer) [%] | SF-268 CNS cancer, percentage of growth (One Dose Primary Anticancer Assay) (SF-268 CNS cancer) [%] | anticancer activity in the 3-cell-line anticancer panel (in words) [1] | activity against B16 melanoma (in words) (B16 melanoma) |
| --- | --- | --- | --- | --- | --- |
| C/C=C(\C)C(=O)N[C@@H](c1ccccc1)[C@@H](O)C(=O)O[C@H]1C[C@@]2(O)[C@@H](OC(=O)c3ccccc3)[C@@H]3[C@]4(OC(C)=O)CO[C@@H]4C[C@H](O)[C@@]3(C)C(=O)[C@H](OC(C)=O)C(=C1C)C2(C)C [Cephalomanine] | 15 | 19 | 30 |  |  |
| CCCCCC(=O)N[C@@H](c1ccccc1)[C@@H](O)C(=O)O[C@H]1C[C@@]2(O)[C@@H](OC(=O)c3ccccc3)[C@@H]3[C@]4(OC(C)=O)CO[C@@H]4C[C@H](O[C@@H]4OC[C@@H](O)[C@H](O)[C@H]4O)[C@@]3(C)C(=O)[C@H](O)C(=C1C)C2(C)C [7-(β-xylosyl)-10-deacetyltaxol C] |  |  |  | active | potent activity |
| CC(=O)O[C@H]1C(=O)[C@]2(C)[C@@H](O[C@@H]3OC[C@@H](O)[C@H](O)[C@H]3O)C[C@H]3OC[C@@]3(OC(C)=O)[C@H]2[C@H](OC(=O)c2ccccc2)[C@]2(O)C[C@H](OC(=O)[C@H](O)[C@@H](NC(=O)c3ccccc3)c3ccccc3)C(C)=C1C2(C)C [7-(β-xylosyl)-taxol] |  |  |  | active | potent activity |
| CC(=O)O[C@H]1C(=O)[C@@]2(C)[C@H]([C@H](OC(=O)c3ccccc3)[C@]3(O)C[C@H](OC(=O)[C@H](O)[C@@H](NC(=O)c4ccccc4)c4ccccc4)C(C)=C1C3(C)C)[C@]1(OC(C)=O)CO[C@@H]1C[C@@H]2O [TX003-17, paclitaxel] | 21 | 30 | 29 | exhibited activity in all three cell lines |  |
| CCCCCC(=O)N[C@@H](c1ccccc1)[C@@H](O)C(=O)O[C@H]1C[C@@]2(O)[C@@H](OC(=O)c3ccccc3)[C@@H]3[C@]4(OC(C)=O)CO[C@@H]4C[C@H](O[C@@H]4OC[C@@H](O)[C@H](O)[C@H]4O)[C@@]3(C)C(=O)[C@H](OC(C)=O)C(=C1C)C2(C)C [7-(β-xylosyl)-taxol C] |  |  |  | active | potent activity |
| CC(=O)O[C@H]1C(=O)[C@@]2(C)[C@H]([C@H](OC(=O)c3ccccc3)[C@]3(O)C[C@H](OC(=O)[C@H](O)[C@@H](NC(=O)c4ccccc4)c4ccccc4)C(C)=C1C3(C)C)[C@]1(OC(C)=O)CO[C@@H]1C[C@@H]2O [Paclitaxel] | 23 | 13 | 30 |  |  |

Source: US7367933B2, “Screening of chemical compounds purified from biological sources” (Sequoia Sciences, Inc., priority 1999, dated 2008)
